Assay results published in patent US20020137929A1, “1 - (3-heterocyclylphenyl) isothiourea, -isourea, -guanidine and -amidine herbicidal agents” (Intellectual Property Department, BASF Aktiengesellschaft, priority 1998, published 2002).

Columns and labels:
[1] = test system: SETVI (Foxtail, Green); experiment: Postemergence herbicidal evaluation; format: in vivo, Setaria viridis; conditions: postemergence
Summary of the method: (§1)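 Two-week-old seedlings sprayed with compound in 50/50 acetone/water plus 0.5% TWEEN 20, at about 0.0156 to 0.500 kg/ha, nozzle at 40 psi. Kept in greenhouse; rated visually 4-5 weeks after treatment on a 0-9 scale versus control, repeat tests averaged.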

[2] = test system: ORYSAT (Rice, Tebonnet); experiment: Postemergence herbicidal evaluation; format: in vivo, Oryza sativa, (L.) Tebonnet; conditions: postemergence
Summary of the method: as §1

[3] = test system: ZEAMX (Corn, Field); experiment: Postemergence herbicidal evaluation; format: in vivo, Zea mays; conditions: postemergence
Summary of the method: as §1

[4] = test system: ECHCG (Barnyardgrass); experiment: Preemergence herbicidal evaluation; format: in vivo, Echinochloa crus-galli; conditions: rated 4-5 weeks after treatment
Summary of the method: (§2)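 Herbicidal effect scored visually, 0-9, at 4 to 5 weeks against a control; compound applied preemergence by aqueous acetone spray to seeded soil at about 0.0156 to 0.500 kg/ha.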

[5] = test system: SETVI (Foxtail, Green); experiment: Preemergence herbicidal evaluation; format: in vivo, Setaria viridis; conditions: rated 4-5 weeks after treatment
Summary of the method: as §2

[6] = test system: TRZAWR (Wheat, Winter, cv Riband); experiment: Preemergence herbicidal evaluation; format: in vivo, Triticum aestivum; conditions: rated 4-5 weeks after treatment
Summary of the method: as §2

[7] = test system: ZEAMX (Corn, Field); experiment: Preemergence herbicidal evaluation; format: in vivo, Zea mays; conditions: rated 4-5 weeks after treatment
Summary of the method: as §2

[8] = test system: ECHORC (Watergrass (Calif.)); experiment: Preemergence weed control under flooded paddy conditions; format: in vivo, Echinochloa oryzoides; conditions: rated 3-4 weeks after treatment
Summary of the method: (§3)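 Ratings on a 0-9 visual scale cover stand, vigor, malformation, size, chlorosis and overall appearance relative to a control, taken three to four weeks post-treatment. Application was into flood water over freshly sown silt loam at roughly 0.0313 to 0.500 kg/ha.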

[9] = test system: CYPIR (Rice Flatsedge); experiment: as above; format: in vivo, Cyperus iria; conditions: rated 3-4 weeks after treatment
Summary of the method: as §3

[10] = test system: CYPSE (Flatsedge); experiment: as above; format: in vivo, Cyperus serotinus; conditions: rated 3-4 weeks after treatment
Summary of the method: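 Greenhouse paddy assay. Acetone/water (50/50 v/v) solutions dosed into flood water, equivalent to about 0.0313 to 0.500 kg/ha active ingredient, over seeds planted 0.5 cm deep in silt loam. Score: 0-9 visual, based on stand, vigor, malformation, size and chlorosis, 3 to 4 weeks after treatment.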

[11] = test system: ECHORC (Watergrass (Calif.)); experiment: Postemergence weed control under flooded paddy conditions; format: in vivo, Echinochloa oryzoides; conditions: postemergence weeds, 3-4 weeks after treatment
Summary of the method: (§4)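 Flood-water application, about 0.0313–0.500 kg/ha a.i. in aqueous/acetone 50/50 v/v; water depth 1.5–3 cm throughout. Weeds 3–5 cm, rice 1.5–2.5 leaf. Greenhouse; 0–9 visual rating vs control at 3–4 wk.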

[12] = test system: CYPIR (Rice Flatsedge); experiment: as above; format: in vivo, Cyperus iria; conditions: postemergence weeds, 3-4 weeks after treatment
Summary of the method: as §4

[13] = test system: CYPSE (Flatsedge); experiment: as above; format: in vivo, Cyperus serotinus; conditions: postemergence weeds, 3-4 weeks after treatment
Summary of the method: as §4

[14] = test system: SAGPY (Arrowhead (Pygmaea)); experiment: as above; format: in vivo, Sagittaria pygmaea; conditions: postemergence weeds, 3-4 weeks after treatment
Summary of the method: as §4

O=C1CSC(=Nc2cc(N3C(=O)C4=C(CCCC4)C3=O)c(F)cc2Cl)N1c1ccccc1 [Compound 3, N-{4-chloro-2-fluoro-5-[(4-oxo-3-phenyl-2-thiazolidinylidene)amino]phenyl}-1-cyclohexene-1,2-dicarboximide]
SETVI herbicidal rating ([1]; rate 0.0157 kg/ha): 0.0
SETVI herbicidal rating ([1]; rate 0.0313 kg/ha): 0.0
SETVI herbicidal rating ([1]; rate 0.0625 kg/ha): 0.0
SETVI herbicidal rating ([1]; rate 0.1250 kg/ha): 0.0
SETVI herbicidal rating ([1]; rate 0.2500 kg/ha): 0.0
SETVI herbicidal rating ([1]; rate 0.5000 kg/ha): 0.0
ORYSAT herbicidal rating ([2]; rate 0.0157 kg/ha): 2.0
ORYSAT herbicidal rating ([2]; rate 0.0313 kg/ha): 2.5
ORYSAT herbicidal rating ([2]; rate 0.0625 kg/ha): 3.0
ORYSAT herbicidal rating ([2]; rate 0.1250 kg/ha): 3.0
ORYSAT herbicidal rating ([2]; rate 0.2500 kg/ha): 2.0
ORYSAT herbicidal rating ([2]; rate 0.5000 kg/ha): 3.5
ZEAMX herbicidal rating ([3]; rate 0.0157 kg/ha): 3.0
ZEAMX herbicidal rating ([3]; rate 0.0313 kg/ha): 3.0
ZEAMX herbicidal rating ([3]; rate 0.0625 kg/ha): 3.0
ZEAMX herbicidal rating ([3]; rate 0.1250 kg/ha): 3.0
ZEAMX herbicidal rating ([3]; rate 0.2500 kg/ha): 3.5
ZEAMX herbicidal rating ([3]; rate 0.5000 kg/ha): 3.5
ECHCG preemergence herbicidal rating ([4]; rate 0.0313 kg/ha): 0.0
ECHCG preemergence herbicidal rating ([4]; rate 0.0625 kg/ha): 0.0
ECHCG preemergence herbicidal rating ([4]; rate 0.1250 kg/ha): 2.0
ECHCG preemergence herbicidal rating ([4]; rate 0.2500 kg/ha): 4.0
ECHCG preemergence herbicidal rating ([4]; rate 0.5000 kg/ha): 6.0
SETVI preemergence herbicidal rating ([5]; rate 0.0313 kg/ha): 0.0
SETVI preemergence herbicidal rating ([5]; rate 0.0625 kg/ha): 4.0
SETVI preemergence herbicidal rating ([5]; rate 0.1250 kg/ha): 4.0
SETVI preemergence herbicidal rating ([5]; rate 0.2500 kg/ha): 4.0
SETVI preemergence herbicidal rating ([5]; rate 0.5000 kg/ha): 9.0
TRZAWR preemergence herbicidal rating ([6]; rate 0.0313 kg/ha): 0.0
TRZAWR preemergence herbicidal rating ([6]; rate 0.0625 kg/ha): 0.0
TRZAWR preemergence herbicidal rating ([6]; rate 0.1250 kg/ha): 0.0
TRZAWR preemergence herbicidal rating ([6]; rate 0.2500 kg/ha): 2.0
TRZAWR preemergence herbicidal rating ([6]; rate 0.5000 kg/ha): 2.0
ZEAMX preemergence herbicidal rating ([7]; rate 0.0313 kg/ha): 0.0
ZEAMX preemergence herbicidal rating ([7]; rate 0.0625 kg/ha): 0.0
ZEAMX preemergence herbicidal rating ([7]; rate 0.1250 kg/ha): 1.0
ZEAMX preemergence herbicidal rating ([7]; rate 0.2500 kg/ha): 2.0
ZEAMX preemergence herbicidal rating ([7]; rate 0.5000 kg/ha): 4.0
Herbicidal rating ECHORC ([8]; 0.0625 kg/ha): 0.0
Herbicidal rating ECHORC ([8]; 0.1250 kg/ha): 0.0
Herbicidal rating ECHORC ([8]; 0.2500 kg/ha): 2.0
Herbicidal rating ECHORC ([8]; 0.5000 kg/ha): 4.0
Herbicidal rating CYPIR ([9]; 0.0625 kg/ha): 0.0
Herbicidal rating CYPIR ([9]; 0.1250 kg/ha): 0.0
Herbicidal rating CYPIR ([9]; 0.2500 kg/ha): 0.0
Herbicidal rating CYPIR ([9]; 0.5000 kg/ha): 0.0
Herbicidal rating CYPSE ([10]; 0.0625 kg/ha): 0.0
Herbicidal rating CYPSE ([10]; 0.1250 kg/ha): 0.0
Herbicidal rating CYPSE ([10]; 0.2500 kg/ha): 0.0
Herbicidal rating CYPSE ([10]; 0.5000 kg/ha): 0.0
Herbicidal rating ECHORC ([11]; rate 0.0625 kg/ha): 0.0
Herbicidal rating ECHORC ([11]; rate 0.1250 kg/ha): 0.0
Herbicidal rating ECHORC ([11]; rate 0.2500 kg/ha): 1.0
Herbicidal rating ECHORC ([11]; rate 0.5000 kg/ha): 2.0
Herbicidal rating CYPIR ([12]; rate 0.0625 kg/ha): 0.0
Herbicidal rating CYPIR ([12]; rate 0.1250 kg/ha): 0.0
Herbicidal rating CYPIR ([12]; rate 0.2500 kg/ha): 0.0
Herbicidal rating CYPIR ([12]; rate 0.5000 kg/ha): 0.5
Herbicidal rating CYPSE ([13]; rate 0.0625 kg/ha): 0.0
Herbicidal rating CYPSE ([13]; rate 0.1250 kg/ha): 0.0
Herbicidal rating CYPSE ([13]; rate 0.2500 kg/ha): 0.0
Herbicidal rating CYPSE ([13]; rate 0.5000 kg/ha): 0.0
Herbicidal rating SAGPY ([14]; rate 0.0625 kg/ha): 0.0
Herbicidal rating SAGPY ([14]; rate 0.1250 kg/ha): 0.0
Herbicidal rating SAGPY ([14]; rate 0.2500 kg/ha): 0.0
Herbicidal rating SAGPY ([14]; rate 0.5000 kg/ha): 0.0
